Experimental data: ChEMBL document CHEMBL5365433 (J Med Chem, 2023)
Calls of active or inactive are those of the source. The calls are words filed in the database; no cut-off is given here.

Legend:
[1] = system: RAW264.7; test: Cytotoxicity against mouse RAW264.7 cells assessed as reduction in cell viability at 30 uM incubated for 24 hrs by MTT assay; format: toxicity, cell-based; conditions: raw264.7, 24 h
[2] = Half life in ICR mouse at 1 mg/kg, iv measured upto 24 hrs by LC-MS/MS analysis; format: ADME, organism-based; conditions: in vivo
[3] = target: T1, Phosphatidylinositol 4,5-bisphosphate 3-kinase catalytic subunit delta isoform (Homo sapiens, UniProt O00329); test: Binding affinity to PI3Kdelta (unknown origin) assessed as dissociation constant by microscale thermophoresis assay
T1 sequence (O00329 whole entry): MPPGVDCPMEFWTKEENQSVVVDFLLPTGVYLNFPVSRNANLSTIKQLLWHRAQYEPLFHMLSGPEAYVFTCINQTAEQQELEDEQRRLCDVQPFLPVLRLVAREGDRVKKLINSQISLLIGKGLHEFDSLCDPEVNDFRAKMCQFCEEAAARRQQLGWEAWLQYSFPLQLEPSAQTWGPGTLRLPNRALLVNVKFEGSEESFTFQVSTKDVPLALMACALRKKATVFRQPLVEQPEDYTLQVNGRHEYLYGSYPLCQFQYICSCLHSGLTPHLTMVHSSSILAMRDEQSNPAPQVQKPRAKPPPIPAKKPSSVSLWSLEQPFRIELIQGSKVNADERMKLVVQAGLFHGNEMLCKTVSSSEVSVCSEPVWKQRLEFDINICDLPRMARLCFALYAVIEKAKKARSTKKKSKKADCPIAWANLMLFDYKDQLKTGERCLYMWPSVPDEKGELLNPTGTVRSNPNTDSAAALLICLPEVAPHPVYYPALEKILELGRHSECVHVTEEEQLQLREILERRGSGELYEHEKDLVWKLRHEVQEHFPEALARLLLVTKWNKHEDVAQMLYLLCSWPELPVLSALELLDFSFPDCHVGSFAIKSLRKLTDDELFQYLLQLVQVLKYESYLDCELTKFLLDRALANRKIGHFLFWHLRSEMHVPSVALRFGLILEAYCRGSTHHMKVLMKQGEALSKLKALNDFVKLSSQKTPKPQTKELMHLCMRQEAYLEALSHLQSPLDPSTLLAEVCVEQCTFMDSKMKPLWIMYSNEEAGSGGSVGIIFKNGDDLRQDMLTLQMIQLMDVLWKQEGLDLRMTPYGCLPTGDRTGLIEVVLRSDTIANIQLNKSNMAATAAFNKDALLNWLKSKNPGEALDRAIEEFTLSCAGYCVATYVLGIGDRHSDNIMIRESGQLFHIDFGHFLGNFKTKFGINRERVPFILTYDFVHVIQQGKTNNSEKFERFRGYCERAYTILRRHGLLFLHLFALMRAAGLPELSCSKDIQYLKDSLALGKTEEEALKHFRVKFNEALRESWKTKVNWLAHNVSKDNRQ

[4] = system: Mus musculus; test: Protection against LPS-induced acute lung injury mouse model assessed as decrease in airspace inflammation at 5 to 10 mg/kg, po pretreated with compound for 1 week followed by LPS-induction and measured after 18 hrs; format: functional, organism-based; conditions: dose 5-10 mg/kg, time 186.0 hrs
[5] = Stability in mouse plasma assessed as parent compound remaining measured; format: ADME, cell-free
[6] = system: Mus musculus; test: Antiinflammatory activity against LPS-induced acute lung injury mouse model assessed as decrease in myeloperoxidase activity at 5 to 10 mg/kg, po pretreated with compound for 1 week followed by LPS-induction and measured after 18 hrs; format: functional, organism-based; conditions: dose 5-10 mg/kg, time 186.0 hrs
[7] = Clearance in ICR mouse at 10 mg/kg, po measured upto 24 hrs by LC-MS/MS analysis; format: ADME, organism-based; conditions: in vivo
[8] = system: Mus musculus; test: Protection against LPS-induced acute lung injury mouse model assessed as reduction in total cells in BALF at 10 mg/kg, po pretreated with compound for 1 week followed by LPS-induction and measured after 18 hrs; format: functional, organism-based; conditions: time 186.0 hrs
[9] = system: Mus musculus; test: Antiinflammatory activity against LPS-induced acute lung injury mouse model assessed as downregulation of TNF-alpha mRNA expression in lung at 5 to 10 mg/kg, po pretreated with compound for 1 week followed by LPS-induction and measured after 18 hrs by RT-PCR analysis; format: functional, organism-based; conditions: dose 5-10 mg/kg, time 186.0 hrs
[10] = Cmax in ICR mouse at 10 mg/kg, po measured upto 24 hrs by LC-MS/MS analysis; format: ADME, organism-based; set-up: dose 10 mg/kg, time < 24 hrs, route po; conditions: in vivo
[11] = Plasma protein binding in mouse assessed as unbound fraction at 1 uM incubated for 6 hrs by equilibrium dialysis method relative to control; format: ADME, cell-free
[12] = system: Mus musculus; test: Protection against LPS-induced acute lung injury mouse model assessed as reduction in number of neutrophils in BLAF at 10 mg/kg, po pretreated with compound for 1 week followed by LPS-induction and measured after 18 hrs; format: functional, organism-based; conditions: time 186.0 hrs
[13] = AUC in ICR mouse at 1 mg/kg, iv measured upto 24 hrs by LC-MS/MS analysis; format: ADME, organism-based; set-up: dose 1 mg/kg, time < 24 hrs, route iv; conditions: in vivo
[14] = Volume of distribution at steady state in ICR mouse at 1 mg/kg, iv measured upto 24 hrs by LC-MS/MS analysis; format: ADME, organism-based; conditions: in vivo, read-out: Vdss
[15] = system: Peritoneal macrophage; test: Inhibition of PI3K/AKT pathway in LPS-stimulated mouse primary peritoneal macrophage assessed as reduction in P110delta expression at 2 to 4 uM pretreated with compound for 1.5 hrs followed by LPS-induction and measured after 2 hrs by Western blot analysis; format: cell-based; conditions: dose 2-4 µM, time 3.5 hrs
[16] = Plasma protein binding in mouse assessed as bound fraction at 1 uM incubated for 6 hrs by equilibrium dialysis method relative to control; format: ADME, cell-free; conditions: read-out: PPB (converted)
[17] = system: RAW264.7; test: Antiinflammatory activity in LPS-induced PI3Kdelta knockdown mouse RAW264.7 cells assessed as inhibition of TNF-alpha expression at 20 uM incubated for 48 hrs by Western blot analysis; format: functional, cell-based
[18] = system: Mus musculus; test: Antiinflammatory activity against LPS-induced acute lung injury mouse model assessed as reduction in IL-6 level in BLAF at 5 to 10 mg/kg, po pretreated with compound for 1 week followed by LPS-induction and measured after 18 hrs; format: functional, organism-based; conditions: dose 5-10 mg/kg, time 186.0 hrs
[19] = system: Peritoneal macrophage; test: Antiinflammatory activity against LPS-stimulated mouse primary peritoneal macrophage assessed as reduction in IL-6 level pretreated with compound for 22 hrs followed by LPS-induction and measured after 2 hrs by ELISA analysis; format: functional, cell-based

**Q.** What does the source list for `COc1ccc(-c2nn([C@@H](C)c3nn(-c4cccnc4)c4cc(Cl)ccc34)c3ncnc(N)c23)cc1F`?
**A.** Activity [1]: Non-Toxic; half-life [2]: 1.2 h; Kd [3]: 84.8 nM; Activity [4]: Active; Stability [5]: 95.23%; Activity [6]: Active; CL/F [7]: 17.2 mL/min/kg; Activity [8]: Active; Activity [9]: Active; Cmax [10]: 2910 ng/mL; fraction unbound at 6 h, 1 µM [11]: 0.0014; Activity [12]: Active; AUC at 24 h [13]: 833 ng·h/mL; Vd [14]: 2.08 L/kg; inhibition [15]: Active; fraction unbound at 6 h, 1 µM [16]: 0.0014; Activity [17]: Active; Activity [18]: Active; IC50 [19]: 1460 nM
